Assay results from patent US20040224958A1, “Pyridopyrimidinone derivatives for treatment of neurodegenerative disease” (priority 2000, published 2004).

Experiments:
[1] = target: cdk4/D (Homo sapiens, UniProt P11802); assay: Cyclin-Dependent Kinase 4 (cdk4) Assay; format: biochemical; conditions: read-out: cdk4/D IC50
Procedure: A typical assay, for instance, measures inhibitory activity against the cyclin D dependent kinase 4 enzyme (cdk4/D). […] The cdk4 assay was carried out as follows.
Cyclin-Dependent Kinase 4 (cdk4) Assay
All components except the ATP were added to the wells, and the plate was placed on a plate mixer for 2 minutes. The reaction was started by adding [^32P]ATP and the plate was incubated at 25° C. for 15 minutes. The reaction was terminated by addition of 0.1 mL of 20% trichloroacetic acid (TCA). The plate was kept at 4° C. for at least 1 hour to allow the substrate to precipitate. The wells were then washed five times with 0.2 mL of 10% TCA and ^32P incorporation was determined with a beta plate counter (Wallac Inc., Gaithersburg, Md.).

[2] = target: cdk2/cyclinE (Homo sapiens, UniProt P24941); assay: Cyclin-Dependent Kinase Assay cdk2/cyclinE; conditions: cdk2/E IC50
[3] = target: cdc2/cyclinB (Homo sapiens, UniProt P06493); assay: Cyclin-Dependent Kinase Assay cdc2/cyclinB
cdc2/cyclinB, sequence (P06493 whole entry): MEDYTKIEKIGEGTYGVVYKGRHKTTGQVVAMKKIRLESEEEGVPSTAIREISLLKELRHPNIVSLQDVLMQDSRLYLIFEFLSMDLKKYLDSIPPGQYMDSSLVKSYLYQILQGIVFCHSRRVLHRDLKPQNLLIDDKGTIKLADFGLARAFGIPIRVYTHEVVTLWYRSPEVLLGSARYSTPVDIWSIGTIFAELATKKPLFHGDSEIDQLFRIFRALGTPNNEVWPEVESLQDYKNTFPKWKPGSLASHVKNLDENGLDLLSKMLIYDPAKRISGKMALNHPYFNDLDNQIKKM
cdc2/cyclinB, sequence (P14635 whole entry, further chain): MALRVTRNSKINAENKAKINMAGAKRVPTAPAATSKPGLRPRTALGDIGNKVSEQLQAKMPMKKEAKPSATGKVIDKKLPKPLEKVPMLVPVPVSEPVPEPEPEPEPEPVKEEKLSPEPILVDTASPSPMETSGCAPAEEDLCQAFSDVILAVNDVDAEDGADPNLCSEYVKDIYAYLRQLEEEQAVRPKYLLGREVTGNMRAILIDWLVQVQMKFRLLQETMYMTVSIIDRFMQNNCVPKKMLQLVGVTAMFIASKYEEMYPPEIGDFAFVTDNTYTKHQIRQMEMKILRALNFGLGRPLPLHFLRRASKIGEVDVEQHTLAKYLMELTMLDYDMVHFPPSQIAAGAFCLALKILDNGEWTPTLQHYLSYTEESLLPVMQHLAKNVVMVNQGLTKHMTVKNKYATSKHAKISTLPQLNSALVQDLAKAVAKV

[4] = target: Cdk5/p25 (Homo sapiens, UniProt Q00535); assay: Cyclin-Dependent Kinase 5 High Throughput Screening (cdk5-HTS) Assay; format: biochemical; conditions: high throughput screen
Procedure: Cyclin-Dependent Kinase 5 High Throughput Screening (cdk5-HTS) Assay
Enzyme assays for IC50 determinations were performed in 96-Pierce Reacti-Bind™ White Opaque Glutatione Coated Plates (Cat. No. 15240B).
The total volume was 0.100 mL containing a final concentration of 50 mM TRIS (tris[hydroxymethyl]aminomethane) at pH 7.4, 50 mM NaCl, 10 mM MgCl2, 5 mM dithiothreitol, 20 μM ATP containing 16 μCi/mL of Redivue[y33P]ATP (Amersham Pharmacia Biotech Cat. No. AH9968), 1.0 μg/mL Cdk5/p25, 20 μg/mL GST-RbCOOH, and appropriate dilutions of a compound of the present invention. The reaction was started by adding[^33P]ATP, and the plate was shaken for 30 seconds, then incubated at room temperature for 30 minutes. The reaction was terminated by addition of 0.05 mL of 120 mM EDTA. The plate was kept at room temperature for 45 minutes to allow substrate to bind to the walls of the plate. The wells were then washed three times with 0.2 mL of 1×PBS. Once thoroughly dry, 0.140 mL of MicroScint™2O (Packard Bioscience Cat. No. 87-9081) cocktail was added to all wells. The incorporation of ^33P was determined with a beta plate counter (Packard Topcount).

[5] = target: cdk2/cyclinA (Homo sapiens, UniProt P24941); assay: Cyclin-Dependent Kinase Assay cdk2/cyclinA; conditions: cdk2/A IC50

cdk4/D, sequence (P11802 whole entry): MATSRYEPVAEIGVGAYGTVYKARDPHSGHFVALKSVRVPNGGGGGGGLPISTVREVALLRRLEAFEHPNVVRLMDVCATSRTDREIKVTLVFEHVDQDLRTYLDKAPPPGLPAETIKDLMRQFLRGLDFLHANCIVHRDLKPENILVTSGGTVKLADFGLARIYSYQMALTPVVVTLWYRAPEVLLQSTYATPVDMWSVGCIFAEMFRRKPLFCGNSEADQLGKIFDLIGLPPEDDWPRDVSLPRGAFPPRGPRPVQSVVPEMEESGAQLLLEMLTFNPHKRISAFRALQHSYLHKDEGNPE
cdk4/D, sequence (P24385 whole entry, further chain): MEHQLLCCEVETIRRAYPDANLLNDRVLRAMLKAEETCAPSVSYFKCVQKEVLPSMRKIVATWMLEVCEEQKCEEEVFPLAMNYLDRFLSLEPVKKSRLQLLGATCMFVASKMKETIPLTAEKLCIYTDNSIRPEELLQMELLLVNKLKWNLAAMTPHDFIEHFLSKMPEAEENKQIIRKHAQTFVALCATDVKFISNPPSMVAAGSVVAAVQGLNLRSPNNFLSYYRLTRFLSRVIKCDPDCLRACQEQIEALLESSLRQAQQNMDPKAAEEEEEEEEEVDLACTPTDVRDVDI

IC50 [1] [µM] | IC50 [2] [µM] | IC50 [3] [µM] | IC50 [4] [µM] | IC50 [5] [µM] | Compound
3.3 | 2.3 | 3.7 | 0.87 | – | CCn1c(=O)ccc2cnc(Nc3cc([N+](=O)[O-])ccc3F)nc21 [Example 297, 8-Ethyl-2-(2-fluoro-5-nitro-phenylamino)-8H-pyrido[2,3-d]pyrimidin-7-one]
1.5 | 1.4 | 1.3 | 0.31 | – | CCC(C)n1c(=O)ccc2cnc(Nc3cc(C(F)(F)F)ccc3F)nc21 (stereo not drawn) [Example 466, 8-sec-Butyl-2-(2-fluoro-5-trifluoromethyl-phenylamino)-8H-pyrido[2,3-d]pyrimidin-7-one]
0.26 | 0.12 | 0.14 | 0.033 | – | CC(C)n1c(=O)ccc2cnc(Nc3ccc(F)c(Cl)c3)nc21 [Example 419, 2-(3-Chloro-4-fluoro-phenylamino)-8-isopropyl-8H-pyrido[2,3-d]pyrimidin-7-one]
– | 1.03 | 2.4 | 2.27 | – | CCCCn1c(=O)ccc2cnc(Nc3cc(C(F)(F)F)ccc3F)nc21 [Example 372, 8-Butyl-2-(2-fluoro-5-trifluoromethyl-phenylamino)-8H-pyrido[2,3-d]pyrimidin-7-one]
0.17 | 0.036 | 0.079 | 0.013 | – | CCC(CC)n1c(=O)ccc2cnc(Nc3ccc(F)c(C)c3)nc21 [Example 503, 8-(1-Ethyl-propyl)-2-(4-fluoro-3-methyl-phenylamino)-8H-pyrido[2,3-d]pyrimidin-7-one]
3 | 1.46 | 1.76 | 1.16 | – | CCCn1c(=O)ccc2cnc(Nc3cc(C(F)(F)F)ccc3F)nc21 [Example 311, 2-(2-Fluoro-5-trifluoromethyl-phenylamino)-8-propyl-8H-pyrido[2,3-d]pyrimidin-7-one]
0.25 | 3.1 | 2 | 1.1 | – | CCC(CC)n1c(=O)ccc2cnc(Nc3cc(F)c(NC(C)=O)c(Cl)c3)nc21 [Example 514, N-{2-Chloro4-[8-(1-ethyl-propyl)-7-oxo-7,8-dihydro-pyrido[2,3-d]pyrimidin-2-ylamino]-6-fluoro-phenyl}-acetamide]
1 | 1 | 1.4 | 0.66 | – | CC(C)n1c(=O)ccc2cnc(Nc3cc([N+](=O)[O-])ccc3F)nc21 [Example 420, 2-(2-Fluoro-5-nitro-phenylamino)-8-isopropyl-8H-pyrido[2,3-d]pyrimidin-7-one]
0.21 | 0.38 | 0.52 | 0.37 | – | CCC(CC)n1c(=O)ccc2cnc(Nc3cc([N+](=O)[O-])ccc3F)nc21 [Example 504, 8-(1-Ethyl-propyl)-2-(2-fluoro-5-nitro-phenylamino)-8H-pyrido[2,3-d]pyrimidin-7-one]
2.4 | 2.4 | 2.6 | 0.89 | – | CC(C)n1c(=O)ccc2cnc(Nc3cc(C(F)(F)F)ccc3F)nc21 [Example 428, 2-(2-Fluoro-5-trifluoromethyl-phenylamino)-8-isopropyl-8H-pyrido[2,3-d]pyrimidin-7-one]

Second part, the molecule before the results:

Compound | IC50 [1] [µM] | IC50 [2] [µM] | IC50 [3] [µM] | IC50 [4] [µM] | IC50 [5] [µM]
O=c1ccc2cnc(Nc3ccc(OC(F)(F)F)cc3)nc2n1CC1CC1 [Example 591, 8-Cyclopropylmethyl-2-(4-trifluoromethoxy-phenylamino)-8H-pyrido[2,3-d]pyrimidin-7-one] | 0.21 | 1.8 | 3.9 | 0.14 | –
CCCCn1c(=O)ccc2cnc(Nc3cc(Cl)cc(Cl)c3)nc21 [Example 391, 8-Butyl-2-(3,5-dichloro-phenylamino)-8H-pyrido[2,3-d]pyrimidin-7-one] | 0.515 | 0.065 | 0.165 | 0.058 | –
CC(C)n1c(=O)ccc2cnc(Nc3ccc(O)c(CN4CCOCC4)c3)nc21 [Example 436, 2-(4-Hydroxy-3-morpholin-4-ylmethyl-phenylamino)-8-isopropyl-8H-pyrido[2,3-d]pyrimidin-7-one] | 1.8 | 0.34 | – | 0.97 | 0.73
CCCn1c(=O)ccc2cnc(Nc3cc(OC)cc(C(F)(F)F)c3)nc21 [Example 342, 2-(3-Methoxy-5-trifluoromethyl-phenylamino)-8-propyl-8H-pyrido[2,3-d]pyrimidin-7-one] | 2.2 | 0.37 | – | 1.4 | 1.8
O=c1ccc2cnc(Nc3cccc([N+](=O)[O-])c3)nc2n1CC(F)(F)F [Example 599, 2-(3-Nitro-phenylamino)-8-(2,2,2-trifluoro-ethyl)-8H-pyrido[2,3-d]pyrimidin-7-one] | – | 1.7 | 2.35 | 0.785 | –
COc1ccc(Nc2ncc3ccc(=O)n(C)c3n2)cc1OC [Example 617, 2-(3,4-Dimethoxy-phenylamino)-8-methyl-8H-pyrido[2,3-d]pyrimidin-7-one] | – | 2.9 | 1.7 | 0.595 | –
CCn1c(=O)ccc2cnc(Nc3cc(OC)c(OC)c(OC)c3)nc21 [Example 292, 8-Ethyl-2-(3,4,5-trimethoxy-phenylamino)-8H-pyrido[2,3-d]pyrimidin-7-one] | – | 1.2 | 0.86 | 0.61 | –
CCCn1c(=O)ccc2cnc(Nc3ccc(Cl)c(Cl)c3)nc21 [Example 350, 2-(3,4-Dichloro-phenylamino)-8-propyl-8H-pyrido[2,3-d]pyrimidin-7-one] | – | 1.2 | 3.1 | 0.23 | –
O=c1ccc2cnc(Nc3ccc4[nH]ncc4c3)nc2n1CC(F)(F)F [Example 594, 2-(1H-Indazol-5-ylamino)-8-(2,2,2-trifluoro-ethyl)-8H-pyrido[2,3-d]pyrimidin-7-one] | – | 1.67 | 1.9 | 0.555 | –
CCCn1c(=O)ccc2cnc(Nc3cc(OC)c(OC)c(OC)c3)nc21 [Example 334, 8-Propyl-2-(3,4,5-trimethoxy-phenylamino)-8H-pyrido[2,3-d]pyrimidin-7-one] | – | 0.91 | 1.3 | 0.3 | –
CCCn1c(=O)ccc2cnc(Nc3cc(C(F)(F)F)cc(C(F)(F)F)c3)nc21 [Example 315, 2-(3,5-Bis-trifluoromethyl-phenylamino)-8-propyl-8H-pyrido[2,3-d]pyrimidin-7-one] | – | 2.58 | 2.19 | 2.44 | –
CCn1c(=O)ccc2cnc(Nc3ccc(C#N)c(NC(C)=O)c3)nc21 [Example 299, N-[2-Cyano-5-(8-ethyl-7-oxo-7,8-dihydro-pyrido[2,3-d]pyrimidin-2-ylamino)-phenyl]-acetamide] | 1.5 | 2.7 | 2.9 | 1 | –
CCCn1c(=O)ccc2cnc(Nc3ccc(OC(F)(F)F)cc3)nc21 [Example 362, 8-Propyl-2-(4-trifluoromethoxy-phenylamino)-8H-pyrido[2,3-d]pyrimidin-7-one] | – | – | 0.27 | 0.19 | 4
CCn1c(=O)ccc2cnc(Nc3ccc(C#N)c(C#N)c3)nc21 [Example 298, 4-(8-Ethyl-7-oxo-7,8-dihydro-pyrido[2,3-d]pyrimidin-2-ylamino)-phthalonitrile] | 2 | 1.4 | 1.9 | 0.43 | –
